Source: ChEMBL document CHEMBL1137960, “Miraziridine A: natures blueprint towards protease class-spanning inhibitors” (Bioorg Med Chem Lett, 2004)
Non-standard residues stand in square brackets, D forms with d. Residues, ends and D or L forms follow the SMILES beside them. ξ: configuration not given here. *: point of attachment. Sta = CC(C)C[C@H](N)[C@@H](O)CC(=O)O; X1 = CC(=O)c1cn(*)c2ccccc12; Isovaleryl = CC(C)CC(=O)*; ξIva = CCC(C)(N)C(=O)O

Assays:
[1] = biological target: Cathepsin B (Homo sapiens) (UniProt P07858); experiment: Second order rate constant for cathepsin B
[2] = biological target: Procathepsin L (Homo sapiens) (UniProt P07711); experiment: Second order rate constant for cathepsin L
Pepsin A = Pepsin A (Sus scrofa, UniProt P00791); experiment: (§1) Inhibitory activity against aspartyl protease pepsin
[3] = biological target: Serine protease 1 (Homo sapiens) (UniProt P07477); experiment: Inhibitory activity against serine protease trypsin
[4] = biological target: Procathepsin L (Homo sapiens) (UniProt P07711); experiment: Inhibitory activity against cysteine protease cathepsin L
Pepsin A (Sus scrofa) = Pepsin A (Sus scrofa) (UniProt P00791); experiment: as §1
[5] = biological target: Cathepsin B (Homo sapiens) (UniProt P07858); experiment: Inhibitory activity against cysteine protease cathepsin B

Chain of Pepsin A (P00791 whole entry): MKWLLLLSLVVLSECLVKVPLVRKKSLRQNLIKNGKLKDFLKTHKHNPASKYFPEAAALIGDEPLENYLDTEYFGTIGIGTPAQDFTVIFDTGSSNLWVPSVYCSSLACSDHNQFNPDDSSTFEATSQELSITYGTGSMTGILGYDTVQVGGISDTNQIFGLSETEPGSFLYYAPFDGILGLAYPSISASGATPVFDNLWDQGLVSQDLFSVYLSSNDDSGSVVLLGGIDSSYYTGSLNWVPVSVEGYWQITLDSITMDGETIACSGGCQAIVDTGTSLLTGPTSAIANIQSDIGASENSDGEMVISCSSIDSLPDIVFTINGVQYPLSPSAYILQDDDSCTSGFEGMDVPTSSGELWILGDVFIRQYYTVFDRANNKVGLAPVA
Chain of Procathepsin L (Homo sapiens) (P07711 114-333 limits assumed): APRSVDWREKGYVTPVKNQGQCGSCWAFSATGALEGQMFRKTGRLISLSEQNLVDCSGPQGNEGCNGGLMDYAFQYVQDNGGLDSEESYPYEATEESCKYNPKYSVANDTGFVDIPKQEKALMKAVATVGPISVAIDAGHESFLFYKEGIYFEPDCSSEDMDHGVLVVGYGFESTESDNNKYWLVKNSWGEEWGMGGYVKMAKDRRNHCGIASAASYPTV
Chain of Serine protease 1 (Homo sapiens) (P07477 whole entry): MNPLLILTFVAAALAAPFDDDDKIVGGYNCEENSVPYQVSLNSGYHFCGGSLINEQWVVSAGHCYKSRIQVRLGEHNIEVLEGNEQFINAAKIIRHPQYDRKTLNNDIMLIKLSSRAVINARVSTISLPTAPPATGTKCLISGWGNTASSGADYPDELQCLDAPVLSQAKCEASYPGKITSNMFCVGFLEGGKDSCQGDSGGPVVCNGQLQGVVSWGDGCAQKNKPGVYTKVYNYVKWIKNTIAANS
Chain of Pepsin A (Sus scrofa) (P00791 60-385 limits assumed): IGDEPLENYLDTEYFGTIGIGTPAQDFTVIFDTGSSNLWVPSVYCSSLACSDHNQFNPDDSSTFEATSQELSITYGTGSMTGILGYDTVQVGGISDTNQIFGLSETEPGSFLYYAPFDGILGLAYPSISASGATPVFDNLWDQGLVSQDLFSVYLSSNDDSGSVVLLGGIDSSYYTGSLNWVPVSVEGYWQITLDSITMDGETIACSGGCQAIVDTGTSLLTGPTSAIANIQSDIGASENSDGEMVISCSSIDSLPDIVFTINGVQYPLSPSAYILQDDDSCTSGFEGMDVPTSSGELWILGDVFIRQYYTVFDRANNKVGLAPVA

CC(C)CCNC(=O)[C@H](CC(C)C)NC(=O)[C@@H]1N[C@H]1C(=O)O
k2/Ki [1]: 17000 M⁻¹ s⁻¹ | k2/Ki [2]: 120000 M⁻¹ s⁻¹

CCC(C)(N)C(=O)N[C@H](C(=O)N[C@@H](CC(C)C)[C@@H](O)CC(=O)N[C@@H](C)C(=O)n1cc(C(C)=O)c2ccccc21)C(C)C (some centres undefined) (H-[ξIva]V[Sta]A-X1)
Ki (Pepsin A): 3 nM

CC(C)CC(=O)N[C@H](C(=O)N[C@H](C(=O)N[C@@H](CC(C)C)[C@@H](O)CC(=O)N[C@@H](C)C(=O)N[C@@H](CC(C)C)[C@@H](O)CC(=O)O)C(C)C)C(C)C (Isovaleryl-VV[Sta]A[Sta]-OH)
Ki (Pepsin A): 0.046 nM

CC[C@H](NC(=O)C[C@H](O)[C@H](CC(C)C)NC(=O)[C@H](CC(C)C)NC(=O)[C@@H]1N[C@H]1C(=O)O)C(=O)N[C@H](/C=C/C(=O)O)CCCN=C(N)N [MIRAZIRIDINE A]
Ki (Pepsin A): 14 nM | Affinity [3]: 60 µM | Affinity [4]: 1e+06 M⁻¹ s⁻¹ | Affinity (Pepsin A (Sus scrofa)): 14 nM | Affinity [5]: 15000 M⁻¹ s⁻¹
